Among the data in patent publication US20230151034A1 (COCRYSTAL PHARMA, INC., priority 2020, published 2023) are IC50 values, retold here.

Where two headings read alike, the source gives them in different places. Where a SMILES comes first, the peptide text is derived from it. [ ]: non-standard residue; d: D form. The star is where a group is joined. ξ: configuration not given here. ξαMeE = CC(N)(CCC(=O)O)C(=O)O; Nonanoyl = CCCCCCCCC(=O)*

One experiment addresses SARS2 protease (Severe acute respiratory syndrome coronavirus 2, UniProt P0DTD1). The experiment in a line: SARS-CoV-2 protease inhibition assay (SARS2 FRET protease assay). It counts as biochemical. The method, boiled down:
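SARS-CoV-2 protease (25 nM) was incubated for 30 min at 30 °C with 1.3 μM quenched 5-FAM/TAMRA peptide substrate and compound (3-fold dilutions, 20 μM–1.0 nM). The buffer was 20 mM HEPES-Na pH 7, 120 mM NaCl, 0.4 mM EDTA, 0.01% Triton, 5% glycerol and 4 mM DTT. Fluorescence was read at ex 473 and em 519 nm, and IC50 was derived.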

The target of experiment [1] is HuNV GGII.4 Norovirus protease (Norovirus GII.4 (human norovirus genogroup II genotype 4), UniProt P54634). The experiment in a line: Norovirus protease FRET assay (HuNV GGII.4). It counts as biochemical.
HuNV GGII.4 Norovirus protease, sequence (P54634 1009-1189): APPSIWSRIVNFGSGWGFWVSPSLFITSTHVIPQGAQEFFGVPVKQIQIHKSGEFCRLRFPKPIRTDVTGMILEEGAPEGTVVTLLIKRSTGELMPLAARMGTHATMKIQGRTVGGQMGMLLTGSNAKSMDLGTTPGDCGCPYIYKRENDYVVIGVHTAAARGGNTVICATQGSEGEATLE
The target of experiment [2] is Norwalk GGI.1 Norovirus protease (Norovirus, UniProt Q83883). The experiment in a line: Noro-Norwalk FRET protease assay (Norwalk GGI.1). Format: biochemical, Norwalk virus. The procedure, abridged:
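IC50 values derive from FRET fluorescence after protease cleavage of quenched peptide (Edans-DFHLQ/GP-Dabcyl or 5-FAM/TAMRA). For Norwalk, 10 μM substrate and 1-7 μM enzyme ran 90 min at 37° C in pH 8 HEPES buffer, compounds 3-fold from 200 μM to 10.2 nM, read 473/519 nm.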

[3] abbreviates: Table E, SARS-CoV-2 protease inhibition, read-out: IC50.
Setting [4] is: Table C, FRET protease assay, read-out: HuNV GGII.4 IC50.
Where [5] appears, read: Table C, FRET protease assay, read-out: Norwalk GGI.1 IC50.

Norwalk GGI.1 Norovirus protease, sequence (Q83883 1101-1281): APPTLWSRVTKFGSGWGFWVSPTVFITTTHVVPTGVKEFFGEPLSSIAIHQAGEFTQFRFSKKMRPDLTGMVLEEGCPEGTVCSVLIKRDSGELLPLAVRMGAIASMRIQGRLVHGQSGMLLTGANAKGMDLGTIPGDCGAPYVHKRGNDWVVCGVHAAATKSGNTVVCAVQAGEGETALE

As to `CCCCCCCC1CC/C=C/CC(C(=O)NC)C[C@@H](C(=O)N(C)OC)NC(=O)C(CC(C)C)NC(=O)O1` (single isomer, unassigned) [Compound B37], the IC50 – broadly, the concentration that gives 50% inhibition – is over 200 µM on SARS2 protease (setting [3]); over 200 µM in experiment [1] (Table D, FRET protease assay, read-out: HuNV GGII.4 IC50); over 200 µM in experiment [2] (Table D, FRET protease assay, read-out: Norwalk GGI.1 IC50).
Regarding `CCS(=O)(=O)NCCN(C)C(=O)CC[C@@H](C=O)NC(=O)[C@H](CC1CCCCC1)NC(=O)OCc1cccc(Cl)c1` (stereo in doubt) [Compound A38, 3-Chlorobenzyl ((S)-3-cyclohexyl-1-(((S)-5-((2-(ethylsulfonamido)ethyl)(methyl)amino)-1,5-dioxopentan-2-yl)amino)-1-oxopropan-2-yl)carbamate], the IC50 worked out at 36 µM on SARS2 protease (setting [3]), 30.6 µM in experiment [1] (setting [4]) and 10.1 µM in experiment [2] (setting [5]).
Take `O=C[C@H](CCC(=O)N1CCCC(c2ccccc2)C1)NC(=O)[C@H](CC1CCCCC1)NC(=O)OCc1cccc(Cl)c1` (stereo in doubt) [Compound A53, 3-Chlorobenzyl ((2S)-3-cyclohexyl-1-(((2S)-1,5-dioxo-5-(3-phenylpiperidin-1-yl)pentan-2-yl)amino)-1-oxopropan-2-yl)carbamate]: the IC50 at SARS2 protease (setting [3]) turned out to be 16.7 µM; in experiment [1] (setting [4]) it was 82.5 µM; in experiment [2] (setting [5]), 6.7 µM.
The matching figures for `CCOCCN(C)C(=O)CC[C@@H](C=O)NC(=O)[C@H](CC1CCCCC1)NC(=O)OCc1cccc(Cl)c1` [Compound A10, 3-chlorobenzyl ((S)-3-cyclohexyl-1-(((S)-5-((2-ethoxyethyl)(methyl)amino)-1,5-dioxopentan-2-yl)amino)-1-oxopropan-2-yl)carbamate]: 0.98 µM, 16.9 µM and 3.6 µM.
Turning to `CCCC1CCCC/C=C/CC(C(=O)N(C)Cc2ccc(OC)cc2OC)C[C@@H](C(O)P(=O)(OCC)OCC)NC(=O)[C@H](CC(C)C)NC1=O` (stereo partly drawn) [Compound B25, Diethyl (((2S,5S,E)-7-((2,4-dimethoxybenzyl)(methyl)carbamoyl)-2-isobutyl-3,16-dioxo-15-propyl-1,4-diazacyclohexadec-9-en-5-yl)(hydroxy)methyl)phosphonate], the values for the IC50 (against SARS2 protease; in experiment [1]; in experiment [2]) were over 200 µM, 177 µM and 177 µM, respectively.
With `CN(C(=O)CC[C@@H](C=O)NC(=O)[C@H](CC1CCCCC1)NC(=O)OCc1cccc(Cl)c1)c1ccccc1` [Compound A19, 3-Chlorobenzyl ((S)-3-cyclohexyl-1-(((S)-5-(methyl (phenyl)amino)-1,5-dioxopentan-2-yl)amino)-1-oxopropan-2-yl) carbamate], the IC50 at SARS2 protease (setting [3]) was 40.3 µM; in experiment [1] (setting [4]), 3.3 µM; in experiment [2] (setting [5]), 1 µM.
The matching figures for `CCNC(=O)NCCN(C)C(=O)CC[C@H](NC(=O)[C@H](CC1CCCCC1)NC(=O)OCc1cccc(Cl)c1)C(O)P(=O)(OCC)OCC` (stereo partly drawn) [Compound A16, 3-Chlorobenzyl ((12S,15S)-16-cyclohexyl-12-((diethoxyphosphoryl)(hydroxy)methyl)-8-methyl-4,9,14-trioxo-3,5,8,13-tetraazahexadecan-15-yl)carbamate]: over 200 µM, over 200 µM and 81.9 µM.
In the same order, the values of `CN(Cc1ccccc1)C(=O)CC[C@@H](C=O)NC(=O)[C@H](CC1CCCCC1)NC(=O)OCc1cccc(Cl)c1` [Compound A18, 3-Chlorobenzyl ((S)-1-(((S)-5-(benzyl (methyl)amino)-1,5-dioxopentan-2-yl)amino)-3-cyclohexyl-1-oxopropan-2-yl) carbamate] are over 200 µM, 14.5 µM and 2.7 µM.
For the compound `CCCCCCCCC(=O)N[C@@H](CC(C)C)C(=O)NC(C)(C=O)CCC(=O)N(C)C` (stereo partly drawn) [Compound A1, N-((2S)-1-((5-(dimethylamino)-2-methyl-1,5-dioxopentan-2-yl)amino)-4-methyl-1-oxopentan-2-yl)nonanamide] (Nonanoyl-Leu-[ξαMeE](NMe2)-aldehyde), the IC50 (on SARS2 protease (setting [3]); in experiment [1] (setting [4]); in experiment [2] (setting [5])) was over 200 µM each time.
